Tested on: 624824-186-R-J2-PDC multicell spheroids, viability
Experiment: Anticancer human tumor 624824-186-R-J2-PDC patient-derived colon adenocarcinoma cell line growth inhibition [PI3K]
Settings: for IC50: curve of first compound; for viability, T/C: stronger effect = lower value
Excerpt: Combinatorial screen of targeted agents with the PI3K inhibitors inavolisib, alpelisib, duvelisib, and copanlisib in multi-cell type tumor spheroids
A high-throughput screen of multi-cell type tumor spheroids was designed to identify active combinations of targeted small molecules and PI3K pathway inhibitors. Complex spheroids include a stromal component modeled by human endothelial cells (HUVEC) and fibroblasts modeled by human mesenchymal stem cells (MSCs). The concentration ranges selected for each drug and investigational agent were based upon clinically achievable concentrations if the clinical Cmax of the agent was known.
Compounds. The drugs and investigational agents: inavolisib (NSC800729), alpelisib (NSC765974), duvelisib (NSC772469), copanlisib (NSC816437), ipatasertib (NSC767898), afuresertib (NSC778305), talazoparib (NSC767125), sapanisertib (NSC764658), selumetinib (NSC741078), tovorafenib (DAY101, NSC766906), vemurafenib (NSC761431), ravoxertinib (NSC781343), sotorasib (NSC818433), MRTX1133 (NSC 836407), abemaciclib (NSC 768073), palbociclib (NSC758247), venetoclax (NSC 766270), SY5609 (NSC837396), enzalutamide (NSC755605), and darolutamide (NSC825331), were obtained from the National Cancer Institute (NCI) Developmental Therapeutics Program Chemical Repository. The FDA-approved anticancer drug set is available from the NCI Developmental Therapeutics Program. […] The stock solutions were prepared in dimethyl sulfoxide (DMSO, Sigma-Aldrich, St. Louis, MO, cat. D2650) at 800-fold the tested concentration and stored at -70 degrees C prior to their use. All drugs and investigational agents were tested over a range starting from a high concentration at or near the clinical Cmax and decreasing in half-log increments. If the clinical Cmax for an agent had not been determined, the highest concentration tested was 10 microM.
Cell Culture. All cells were maintained in an incubator at 37 degrees C and 5% CO2 with 95% humidity. The PDC lines were cultured according to standard operating procedures established by the NCI PDMR (https://pdmr.cancer.gov/sops/default.htm). All PDCs were thawed and cultured in Matrigel-coated flasks prepared with a working solution of 1X Ham's F-12 nutrient mix, without supplementation (Invitrogen, Waltham, MA, cat. 11765054), 100 U/mL penicillin-streptomycin (Invitrogen, cat. 15140122), and 2.5% Matrigel (Corning Inc., Corning, NY, cat. 354248) for the first three passages. The 354836-022-R-J1-PDC, 475296-252-R-J1-PDC, and 997726-040-R-J2-PDC lines were cultured in 6A media, which includes advanced DMEM/F-12 (Thermo Fisher Scientific, cat. 12634028), 10 mM HEPES (Thermo Fisher Scientific, cat. 15630080), 1X GlutaMAX supplement (Thermo Fisher Scientific, cat. 35050061), 0.1 mg/mL primocin (InvivoGen, San Diego, CA, cat. ant-pm-2), 10% defined fetal bovine serum, heat inactivated (HyClone Laboratories Inc., Logan, UT, cat. SH30070.03HI), 50% L-WRN conditioned media (ATCC, cat. CRL-3276), 1.25 mM N-Acetyl-L-cysteine (Sigma-Aldrich, cat. A9165), 10 mM nicotinamide (Sigma-Aldrich, cat. N0636), 1X B-27 supplement (Thermo Fisher Scientific, cat. 17504044), 1X N-2 supplement (Thermo Fisher Scientific, cat. 17502048), and 10 microM Y-27632 dihydrochloride (Tocris Bioscience, Bristol, United Kingdom, cat. 1254). The 624824-186-R-J2-PDC line was cultured in 6C/Colon 1B media, which includes all 6A media components plus 50 ng/mL human EGF recombinant protein (Thermo Fisher Scientific, cat. PHG0311). […]

[1] = second compound 0.00316 µM, first compound 0.0316 µM
[2] = second compound 0.00316 µM, first compound 0.1 µM
[3] = second compound 0.00316 µM, first compound 0.316 µM
[4] = second compound 0.00316 µM, first compound 1 µM
[5] = second compound 0.00316 µM, first compound 3.16 µM
[6] = second compound 0.00316 µM, first compound 10 µM
[7] = second compound 0.01 µM, first compound 0.0316 µM
[8] = second compound 0.01 µM, first compound 0.1 µM
[9] = second compound 0.01 µM, first compound 0.316 µM
[10] = second compound 0.01 µM, first compound 1 µM
[11] = second compound 0.01 µM, first compound 3.16 µM
[12] = second compound 0.01 µM, first compound 10 µM
[13] = second compound 0.0316 µM, first compound 0.0316 µM
[14] = second compound 0.0316 µM, first compound 0.1 µM
[15] = second compound 0.0316 µM, first compound 0.316 µM
[16] = second compound 0.0316 µM, first compound 1 µM
[17] = second compound 0.0316 µM, first compound 3.16 µM
[18] = second compound 0.0316 µM, first compound 10 µM
[19] = second compound 0.1 µM, first compound 0.0316 µM
[20] = second compound 0.1 µM, first compound 0.1 µM
[21] = second compound 0.1 µM, first compound 0.316 µM
[22] = second compound 0.1 µM, first compound 1 µM
[23] = second compound 0.1 µM, first compound 3.16 µM
[24] = second compound 0.1 µM, first compound 10 µM
[25] = second compound 0.316 µM, first compound 0.0316 µM
[26] = second compound 0.316 µM, first compound 0.1 µM
[27] = second compound 0.316 µM, first compound 0.316 µM
[28] = second compound 0.316 µM, first compound 1 µM
[29] = second compound 0.316 µM, first compound 3.16 µM
[30] = second compound 0.316 µM, first compound 10 µM
[31] = second compound 1 µM, first compound 0.0316 µM
[32] = second compound 1 µM, first compound 0.1 µM
[33] = second compound 1 µM, first compound 0.316 µM
[34] = second compound 1 µM, first compound 1 µM
[35] = second compound 1 µM, first compound 3.16 µM
[36] = second compound 1 µM, first compound 10 µM
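Further: spheroids exposed to agents for 7 days before viability read.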
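Wherever viability, T/C is given: 100% = DMSO vehicle treated spheroids.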

With `Cn1ncc(Cl)c1-c1cc(C(=O)NC(CN)Cc2cccc(F)c2)sc1Cl` (stereo unspecified) + COc1c(OCCCN2CCOCC2)ccc2c3n(c(=NC(=O)c4cnc(N)nc4)nc12)CCN3 the IC50 (second compound 0.00316 µM) was greater than 10 µM, the IC50 (second compound 0.01 µM) was 8.26 µM and the IC50 (second compound 0.0316 µM) was 8.19 µM. It also gave an IC50 (second compound 0.1 µM) of 7.47 µM, an IC50 (second compound 0.316 µM) of 5.31 µM and an IC50 (second compound 1 µM) of 4.55 µM. For the same molecule, the viability, T/C [1] was 86.6%, the viability, T/C [2] was 72% and the viability, T/C [3] was 90.8%. For the same molecule, the viability, T/C [4] was 87.7%, the viability, T/C [5] was 72.7% and the viability, T/C [6] was 50%. For the same molecule, the viability, T/C [7] was 118%, the viability, T/C [8] was 81.2% and the viability, T/C [9] was 93.7%. For the same molecule, the viability, T/C [10] was 81.6%, the viability, T/C [11] was 62.6% and the viability, T/C [12] was 45.5%. It also gave a viability, T/C [13] of 86.1%, a viability, T/C [14] of 85.5% and a viability, T/C [15] of 89.2%. The viability, T/C [16] was 74%, the viability, T/C [17] was 71% and the viability, T/C [18] was 45.4%. It also gave a viability, T/C [19] of 78.2%, a viability, T/C [20] of 81.3% and a viability, T/C [21] of 68.3%. For the same molecule, the viability, T/C [22] was 69.2%, the viability, T/C [23] was 64.7% and the viability, T/C [24] was 44.9%. The viability, T/C [25] was 80.9%, the viability, T/C [26] was 66.6% and the viability, T/C [27] was 64.7%. The viability, T/C [28] was 66.9%, the viability, T/C [29] was 63.4% and the viability, T/C [30] was 36.3%. The viability, T/C [31] was 68.5%, the viability, T/C [32] was 58.3% and the viability, T/C [33] was 61.6%. It also gave a viability, T/C [34] of 57.9%, a viability, T/C [35] of 57.8% and a viability, T/C [36] of 35.8%.

`C#Cc1c(F)ccc2cc(O)cc(-c3ncc4c(N5CC6CCC(C5)N6)nc(OCC56CCCN5CC(F)C6)nc4c3F)c12` (stereo unspecified) + COc1c(OCCCN2CCOCC2)ccc2c3n(c(=NC(=O)c4cnc(N)nc4)nc12)CCN3 showed an IC50 (second compound 0.00316 µM) greater than 10 µM, an IC50 (second compound 0.01 µM) greater than 10 µM and an IC50 (second compound 0.0316 µM) greater than 10 µM. It also gave an IC50 (second compound 0.1 µM) greater than 10 µM, an IC50 (second compound 0.316 µM) greater than 10 µM and an IC50 (second compound 1 µM) of 6.78 µM. For the same molecule, the viability, T/C [1] was 89.2%, the viability, T/C [2] was 101% and the viability, T/C [3] was 73.6%. It also gave a viability, T/C [4] of 91.6%, a viability, T/C [5] of 87.9% and a viability, T/C [6] of 80.8%. The viability, T/C [7] was 92.8%, the viability, T/C [8] was 90.2% and the viability, T/C [9] was 89.8%. The viability, T/C [10] was 78.5%, the viability, T/C [11] was 89.9% and the viability, T/C [12] was 95.4%. For the same molecule, the viability, T/C [13] was 94.3%, the viability, T/C [14] was 77.2% and the viability, T/C [15] was 92.6%. The viability, T/C [16] was 77.5%, the viability, T/C [17] was 80.6% and the viability, T/C [18] was 81.5%. For the same molecule, the viability, T/C [19] was 78.8%, the viability, T/C [20] was 76.9% and the viability, T/C [21] was 66.2%. It also gave a viability, T/C [22] of 68.3%, a viability, T/C [23] of 72.8% and a viability, T/C [24] of 72.2%. For the same molecule, the viability, T/C [25] was 72.6%, the viability, T/C [26] was 59.4% and the viability, T/C [27] was 65%. For the same molecule, the viability, T/C [28] was 60.4%, the viability, T/C [29] was 58.5% and the viability, T/C [30] was 56.4%. The viability, T/C [31] was 60.1%, the viability, T/C [32] was 59.9% and the viability, T/C [33] was 52.9%. The viability, T/C [34] was 56%, the viability, T/C [35] was 50.8% and the viability, T/C [36] was 49.3%.

With `CNC(=O)c1ccc(N2C(=S)N(c3ccc(C#N)c(C(F)(F)F)c3)C(=O)C2(C)C)cc1F` + CC(Nc1ccc2c(c1)OCCn1cc(N3C(=O)OCC3C(F)F)nc1-2)C(N)=O the IC50 (second compound 0.00316 µM) was greater than 10 µM, the IC50 (second compound 0.01 µM) was greater than 10 µM and the IC50 (second compound 0.0316 µM) was greater than 10 µM. For the same molecule, the IC50 (second compound 0.1 µM) was greater than 10 µM, the IC50 (second compound 0.316 µM) was greater than 10 µM and the IC50 (second compound 1 µM) was greater than 10 µM. It also gave a viability, T/C [1] of 90.2%, a viability, T/C [2] of 90.7% and a viability, T/C [3] of 107%. The viability, T/C [4] was 96.3%, the viability, T/C [5] was 134% and the viability, T/C [6] was 121%. The viability, T/C [7] was 88.3%, the viability, T/C [8] was 107% and the viability, T/C [9] was 88.5%. It also gave a viability, T/C [10] of 86.4%, a viability, T/C [11] of 124% and a viability, T/C [12] of 109%. For the same molecule, the viability, T/C [13] was 75.5%, the viability, T/C [14] was 77.3% and the viability, T/C [15] was 89.5%. The viability, T/C [16] was 80.5%, the viability, T/C [17] was 102% and the viability, T/C [18] was 98.3%. The viability, T/C [19] was 72.3%, the viability, T/C [20] was 66% and the viability, T/C [21] was 84.8%. It also gave a viability, T/C [22] of 67.8%, a viability, T/C [23] of 78% and a viability, T/C [24] of 102%. The viability, T/C [25] was 78%, the viability, T/C [26] was 72.3% and the viability, T/C [27] was 88.5%. For the same molecule, the viability, T/C [28] was 76.9%, the viability, T/C [29] was 104% and the viability, T/C [30] was 98.7%. The viability, T/C [31] was 69%, the viability, T/C [32] was 78% and the viability, T/C [33] was 89.3%. It also gave a viability, T/C [34] of 87.5%, a viability, T/C [35] of 95.2% and a viability, T/C [36] of 93.7%.

From PubChem BioAssay AID1963975 (Molecular Pharmacology Branch, DTP, NCI, 2024)
